# Test results published in ChEMBL document CHEMBL1130293, “Studies on the active conformation of the NK1 antagonist CGP 49823. Part 21. Fluoro-olefin analogs of tertiary amide rotamers” (Bioorg Med Chem Lett, 1997).
# Target: Substance-P receptor (Homo sapiens, UniProt P25103)
# Assay: Tested for the binding affinity against neurokinin NK1 receptor
# Chain of Substance-P receptor (P25103 whole entry): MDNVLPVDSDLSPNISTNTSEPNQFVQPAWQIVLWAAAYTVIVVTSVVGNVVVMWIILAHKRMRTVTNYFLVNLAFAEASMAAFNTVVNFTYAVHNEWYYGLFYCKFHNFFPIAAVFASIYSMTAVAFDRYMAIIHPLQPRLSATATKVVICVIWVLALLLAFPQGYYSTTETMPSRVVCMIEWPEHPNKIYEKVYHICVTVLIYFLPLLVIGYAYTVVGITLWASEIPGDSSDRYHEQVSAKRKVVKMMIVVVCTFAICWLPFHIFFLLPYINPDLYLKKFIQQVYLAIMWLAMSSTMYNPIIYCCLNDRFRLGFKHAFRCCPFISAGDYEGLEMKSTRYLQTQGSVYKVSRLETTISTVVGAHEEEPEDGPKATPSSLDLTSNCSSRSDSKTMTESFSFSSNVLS
row,SMILES,IC50 [nM]
1,Cc1cc(C)cc(C(=O)N2CC[C@H](NC(=O)c3ccnc4ccccc34)C[C@H]2Cc2ccccc2)c1,15
2,Cc1cc(C)cc(/C(F)=C2\CC[C@@H](NC(=O)c3ccnc4ccccc34)C[C@@H]2Cc2ccccc2)c1,270
3,Cc1cc(C)cc(/C(F)=C2\CCC(NC(=O)c3ccnc4ccccc34)CC2Cc2ccccc2)c1 (racemic),620
4,Cc1cc(C)cc(/C(F)=C2\CC[C@H](NC(=O)c3ccnc4ccccc34)C[C@H]2Cc2ccccc2)c1,> 10000

# Other lines, results leading:
row,IC50 [nM],SMILES
1,380,Cc1cc(C)cc(/C(F)=C2/CC[C@H](NC(=O)c3ccnc4ccccc34)C[C@H]2Cc2ccccc2)c1
2,710,Cc1cc(C)cc(/C(F)=C2/CCC(NC(=O)c3ccnc4ccccc34)CC2Cc2ccccc2)c1 (racemic)
3,> 10000,Cc1cc(C)cc(/C(F)=C2/CC[C@@H](NC(=O)c3ccnc4ccccc34)C[C@@H]2Cc2ccccc2)c1
